Measured values published in the supplement of paper PMC10307832.

How the values were obtained:
Test in all cases: relative viability (nuclei count vs DMSO), 5 days (fraction); higher = more cells survive
KIN001-266 = compound: CCN1CCC(CC1)N2C=C(N=N2)CNC3=CC4=C(C(=CN=C4C(=C3)Cl)C#N)NC5=CC(=C(C=C5)F)Cl [KIN001-266]
In short: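 Viability here means nuclei in treated wells divided by nuclei in vehicle wells, reported as the median across plates. Only plates with control CV below 25% and at least one doubling passed. Lung cancer cell lines in 1536-well plates were exposed to five √10-spaced library-drug doses for 5 days and counted from 4× Hoechst images in MetaXpress.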

KIN001-266 + Foretinib = compound: CCN1CCC(CC1)N2C=C(N=N2)CNC3=CC4=C(C(=CN=C4C(=C3)Cl)C#N)NC5=CC(=C(C=C5)F)Cl [KIN001-266] + COc1cc2c(Oc3ccc(NC(=O)C4(C(=O)Nc5ccc(F)cc5)CC4)cc3F)ccnc2cc1OCCCN1CCOCC1 [Foretinib] (partner 0.25 µM)
In short: (§1)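 Five library-drug doses in √10 steps were combined with a fixed anchor-drug dose, or a single drug was given alone, by pin tool to lung cancer cell lines in 1536-well plates the day after seeding. Nuclei were stained and counted after 5 days. Relative viability is the nuclei count in treated wells over that in vehicle wells, taken as the median of duplicate plates.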

KIN001-266 + OSI-027 = compound: CCN1CCC(CC1)N2C=C(N=N2)CNC3=CC4=C(C(=CN=C4C(=C3)Cl)C#N)NC5=CC(=C(C=C5)F)Cl [KIN001-266] + COc1cccc2cc(-c3nc([C@H]4CC[C@H](C(=O)O)CC4)n4ncnc(N)c34)[nH]c12 [OSI-027] (partner 0.5 µM)
In short: as §1

KIN001-266 + Palbociclib = compound: CCN1CCC(CC1)N2C=C(N=N2)CNC3=CC4=C(C(=CN=C4C(=C3)Cl)C#N)NC5=CC(=C(C=C5)F)Cl [KIN001-266] + CC(=O)c1c(C)c2cnc(Nc3ccc(N4CCNCC4)cn3)nc2n(C2CCCC2)c1=O [Palbociclib] (partner 0.5 µM)
In short: as §1

Row | Cell Line | relative viability (KIN001-266; 0.08 µM) | relative viability (KIN001-266; 0.253 µM) | relative viability (KIN001-266; 0.8 µM) | relative viability (KIN001-266; 2.53 µM) | relative viability (KIN001-266; 8 µM) | relative viability (KIN001-266 + Foretinib; first compound 0.08 µM) | relative viability (KIN001-266 + Foretinib; first compound 0.253 µM) | relative viability (KIN001-266 + Foretinib; first compound 0.8 µM) | relative viability (KIN001-266 + Foretinib; first compound 2.53 µM) | relative viability (KIN001-266 + Foretinib; first compound 8 µM) | relative viability (KIN001-266 + OSI-027; first compound 0.08 µM) | relative viability (KIN001-266 + OSI-027; first compound 0.253 µM) | relative viability (KIN001-266 + OSI-027; first compound 0.8 µM) | relative viability (KIN001-266 + OSI-027; first compound 2.53 µM) | relative viability (KIN001-266 + OSI-027; first compound 8 µM) | relative viability (KIN001-266 + Palbociclib; first compound 0.08 µM) | relative viability (KIN001-266 + Palbociclib; first compound 0.253 µM) | relative viability (KIN001-266 + Palbociclib; first compound 0.8 µM) | relative viability (KIN001-266 + Palbociclib; first compound 2.53 µM) | relative viability (KIN001-266 + Palbociclib; first compound 8 µM)
1 | NCI-H2342 | 1.02 | 0.971 | 0.958 | 0.965 | 1.1 | 1.09 | 1.04 | 1.17 | 1.15 | 1.07 | 0.607 | 0.626 | 0.564 | 0.708 | 0.754 | 0.52 | 0.518 | 0.471 | 0.597 | 0.575
2 | NCI-H2347 | 1.04 | 1 | 1 | 0.989 | 0.582 | 1.04 | 0.622 | 0.746 | 0.844 | 0.632 | 0.606 | 0.456 | 0.296 | 0.374 | 0.255 | 0.445 | 0.468 | 0.401 | 0.442 | 0.404
3 | NCI-H2405 | 1.03 | 1.02 | 0.977 | 0.958 | 0.821 | 1.06 | 1.02 | 1.02 | 1.05 | 0.713 | 0.652 | 0.671 | 0.609 | 0.561 | 0.515 | 0.525 | 0.567 | 0.551 | 0.467 | 0.441
4 | NCI-H3122 | 0.967 | 1.02 | 1.01 | 0.919 | 0.95 | 0.98 | 0.961 | 0.94 | 0.918 | 0.914 | 0.965 | 0.905 | 0.917 | 0.804 | 0.8 | 0.155 | 0.204 | 0.176 | 0.233 | 0.209
5 | PC-3 [JPC-3] | 1 | 1.06 | 0.916 | 1.03 | 0.859 | 1.02 | 1.04 | 0.983 | 0.972 | 0.889 | 0.764 | 0.776 | 0.688 | 0.755 | 0.751 | 0.539 | 0.544 | 0.542 | 0.537 | 0.549
6 | PC-14 | 0.933 | 1.07 | 0.84 | 0.885 | 0.485 | 0.907 | 1.04 | 0.743 | 0.979 | 0.503 | 0.836 | 0.981 |  | 0.67 | 0.152 | 0.55 | 0.518 | 0.594 | 0.509 | 0.0895
